The target in one series is Wee1-like protein kinase (Homo sapiens, UniProt P30291).
Series [1] in a line: physchem.
Description: Dissociation constant, pKa of the compound
Series [2] concerns HT-29. Nature of the series: cells. It is filed as cell-based. The note with it: Homo sapiens.
Description: Inhibition of human Cdc2/cyclin B-mediated histone H1 kinase phosphorylation in HT29 cells
Series [3] deals with Cyclin-dependent kinase 1 (Homo sapiens, UniProt P06493). Type of series: cell-based. The note with it: ht-29.
Description: Inhibition of human Cdc2 kinase PY15 phosphorylation in HT29 cells by Western blot
Series [4] has as its system HT-29. Put plainly: cells. It is filed as functional, cell-based. The note with it: Homo sapiens, HT-29, 72 h.
Description: Cytotoxicity against human HT29 cells after 72 hrs
Series [5] concerns the target T1, Serine/threonine-protein kinase Chk1 (Homo sapiens, UniProt O14757).
T1 sequence (O14757 whole entry): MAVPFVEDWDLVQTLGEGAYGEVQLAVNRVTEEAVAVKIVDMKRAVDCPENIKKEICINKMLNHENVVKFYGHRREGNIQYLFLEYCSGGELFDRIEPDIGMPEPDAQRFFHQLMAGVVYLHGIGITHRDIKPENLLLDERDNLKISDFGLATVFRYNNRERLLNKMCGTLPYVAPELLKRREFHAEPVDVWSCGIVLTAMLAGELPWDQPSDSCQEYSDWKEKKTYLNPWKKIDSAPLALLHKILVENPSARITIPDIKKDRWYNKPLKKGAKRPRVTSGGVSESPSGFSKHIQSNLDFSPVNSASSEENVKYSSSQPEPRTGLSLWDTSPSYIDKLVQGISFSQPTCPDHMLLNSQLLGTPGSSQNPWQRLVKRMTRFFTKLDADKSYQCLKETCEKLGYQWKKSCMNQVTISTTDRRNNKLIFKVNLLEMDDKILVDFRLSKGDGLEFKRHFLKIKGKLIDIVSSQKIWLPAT

Series [6] can be described thus: physchem. The note with it: buffer.
Description: Aqueous solubility in water

SMILES strings stand for the structures.

Wee1-like protein kinase, sequence (P30291 whole entry): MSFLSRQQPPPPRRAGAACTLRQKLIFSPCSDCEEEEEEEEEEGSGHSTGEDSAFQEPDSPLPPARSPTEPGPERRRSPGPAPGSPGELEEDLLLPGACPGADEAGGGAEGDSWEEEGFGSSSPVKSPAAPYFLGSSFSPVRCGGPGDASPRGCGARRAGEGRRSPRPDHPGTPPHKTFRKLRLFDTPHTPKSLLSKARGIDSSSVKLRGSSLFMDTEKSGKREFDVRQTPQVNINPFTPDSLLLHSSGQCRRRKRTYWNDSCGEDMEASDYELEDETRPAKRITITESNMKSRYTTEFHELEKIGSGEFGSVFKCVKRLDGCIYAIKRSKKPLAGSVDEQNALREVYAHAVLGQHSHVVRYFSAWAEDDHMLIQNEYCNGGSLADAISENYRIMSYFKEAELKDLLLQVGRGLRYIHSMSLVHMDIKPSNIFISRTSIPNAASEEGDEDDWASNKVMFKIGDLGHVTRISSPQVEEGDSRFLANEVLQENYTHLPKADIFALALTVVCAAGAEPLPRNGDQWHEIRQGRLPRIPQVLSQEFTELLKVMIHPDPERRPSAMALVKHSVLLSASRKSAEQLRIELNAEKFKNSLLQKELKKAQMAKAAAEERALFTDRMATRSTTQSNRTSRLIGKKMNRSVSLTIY
Cyclin-dependent kinase 1, sequence (P06493 whole entry): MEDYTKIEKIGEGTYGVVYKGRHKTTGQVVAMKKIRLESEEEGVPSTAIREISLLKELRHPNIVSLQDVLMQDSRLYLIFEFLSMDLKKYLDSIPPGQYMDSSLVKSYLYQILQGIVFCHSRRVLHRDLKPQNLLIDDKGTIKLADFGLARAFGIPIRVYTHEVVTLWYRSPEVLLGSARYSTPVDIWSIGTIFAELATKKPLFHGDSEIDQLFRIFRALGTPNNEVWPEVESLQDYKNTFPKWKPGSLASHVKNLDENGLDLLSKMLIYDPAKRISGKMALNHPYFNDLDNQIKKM

In general, IC50 refers to the concentration that gives 50% inhibition. As a reminder, the pKa is the negative logarithm of the acid dissociation constant. Low readings indicate a stronger acid or weaker base, high ones a weaker acid or stronger base. On to `CN(C)CCCCc1cc2c(cc1O)c1c3c(c(-c4ccccc4Cl)cc1n2C)C(=O)NC3=O`, for which half-maximal inhibition at Wee1-like protein kinase (IC50) required 34 nM. In the series “physchem [1]”, the pKa was 9.5.

On to `Cn1c2cc(OCCCN3CCCC3)c(O)cc2c2c3c(c(-c4ccccc4Cl)cc21)C(=O)NC3=O`, for which the IC50 amounted to 230 nM in the series on HT-29 [2], 30 nM in series [3] and 310 nM with HT-29 [4]. The compound also showed a pKa in the series “physchem [1]” of 10.5.

`O=C1NC(=O)c2c1c(-c1ccccc1Cl)cc1c2c2cc(O)c(CCCCN3CCCC3)cc2n1CCO`: at Wee1-like protein kinase, 24 nM corresponded to half-maximal inhibition (IC50). The compound further gave a pKa in the series “physchem [1]” of 10.5.

At Wee1-like protein kinase, `O=C1NC(=O)c2c1c(-c1ccccc1Cl)cc1[nH]c3cc(OCCCN4CCOCC4)c(O)cc3c21` returned an IC50 of 26 nM. Further, in “physchem [1]”, the pKa stood at 7.8.

In turn, `Cn1c2cc(S(=O)(=O)CCCN3CCCC3)c(O)cc2c2c3c(c(-c4ccccc4Cl)cc21)C(=O)NC3=O` displayed an IC50 on Wee1-like protein kinase of 160 nM. The compound further came in with a pKa in the series “physchem [1]” of 10.5.

At Wee1-like protein kinase, `O=C1NC(=O)c2c1c(-c1ccccc1Cl)cc1c2c2cc(O)c(CCCCN3CCOCC3)cc2n1CCO` came in with an IC50 of 19 nM. This compound also had a pKa in “physchem [1]” of 7.8.

On to `O=C1NC(=O)c2c1c(-c1ccccc1Cl)cc1c2c2cc(O)c(OCCCN3CCCC3)cc2n1CCO`, for which the half-inhibitory concentration (IC50) against Wee1-like protein kinase was found to be 24 nM; with HT-29 [2], 860 nM; in series [3] it was 30 nM. In the series “physchem [1]”, this compound displayed a pKa of 10.5.

On to `Cn1c2cc([S+]([O-])CCCN3CCCC3)c(O)cc2c2c3c(c(-c4ccccc4Cl)cc21)C(=O)NC3=O` (configuration not stated), for which the IC50 against Wee1-like protein kinase is 33 nM; in series [5], 7 nM. Further, the pKa in “physchem [1]” was 10.5.

In turn, `O=C1NC(=O)c2c1c(-c1ccccc1Cl)cc1[nH]c3cc(OCCCN4CCCC4)c(O)cc3c21` registered an IC50 against Wee1-like protein kinase of 35 nM. The same compound came in with a pKa in the series “physchem [1]” of 10.5.

Compound `Cn1c2cc(CCCCN3CCCC3)c(O)cc2c2c3c(c(-c4ccccc4Cl)cc21)C(=O)NC3=O` returned a 50% inhibitory concentration (IC50) on Wee1-like protein kinase of 36 nM. The same compound yielded a pKa in “physchem [1]” of 10.5.

For the compound `O=C1NC(=O)c2c1c(-c1ccccc1Cl)cc1c2c2cc(O)c(OCCCN3CCOCC3)cc2n1CCO`, the figures for the IC50 (against Wee1-like protein kinase; in the series on HT-29 [2]; in series [3]) were 15 nM, 530 nM and 250 nM, respectively. Moreover, in “physchem [1]”, the pKa turned out to be 7.8.

On to `Cn1c2cc(C(=O)NCCN3CCCC3)c(O)cc2c2c3c(c(-c4ccccc4Cl)cc21)C(=O)NC3=O`, for which, in “physchem [1]”, the pKa came to 10.5.

For the compound `Cn1c2cc(OCCCN3CCOCC3)c(O)cc2c2c3c(c(-c4ccccc4Cl)cc21)C(=O)NC3=O`, half-maximal inhibition against Wee1-like protein kinase (IC50) was put at 57 nM. The compound also came in with a pKa in the series “physchem [1]” of 7.8.

On Wee1-like protein kinase, `CN(C)CCCOc1cc2[nH]c3cc(-c4ccccc4Cl)c4c(c3c2cc1O)C(=O)NC4=O` returned an IC50 of 26 nM. This compound showed a pKa in the series “physchem [1]” of 9.5.

Take `O=C1NC(=O)c2c1c(-c1ccccc1Cl)cc1[nH]c3cc(CCCCN4CCCC4)c(O)cc3c21`: the IC50 amounted to 50 nM at Wee1-like protein kinase, 780 nM in the series on HT-29 [2] and 200 nM in series [3]. The same compound displayed a pKa in the series “physchem [1]” of 10.5.

Turning to `CN(C)CCCCc1cc2[nH]c3cc(-c4ccccc4Cl)c4c(c3c2cc1O)C(=O)NC4=O`, the IC50 against Wee1-like protein kinase was 49 nM; with HT-29 [2] it was 880 nM; in series [3] it was 250 nM. The same compound displayed a pKa in the series “physchem [1]” of 9.5.

Turning to `CN(C)CCCOc1cc2c(cc1O)c1c3c(c(-c4ccccc4Cl)cc1n2CCO)C(=O)NC3=O`, the IC50 at Wee1-like protein kinase amounted to 18 nM; in the series on HT-29 [2] it was 750 nM; in series [3], 250 nM. The pKa in the series “physchem [1]” amounted to 9.5.

In turn, `Cn1c2cc(S(=O)(=O)NCCN3CCCC3)c(O)cc2c2c3c(c(-c4ccccc4Cl)cc21)C(=O)NC3=O` displayed an IC50 on Wee1-like protein kinase of 46 nM. The pKa in the series “physchem [1]” came to 10.5.

As to `O=C1NC(=O)c2c1c(-c1ccccc1Cl)cc1[nH]c3cc(CCCCN4CCOCC4)c(O)cc3c21`, the IC50 against Wee1-like protein kinase is 37 nM; with HT-29 [2] it was 1230 nM; in series [3] it was 250 nM. This compound came in with a pKa in “physchem [1]” of 7.8.

Take `Cn1c2cc(SCCCN3CCCC3)c(O)cc2c2c3c(c(-c4ccccc4Cl)cc21)C(=O)NC3=O`: inhibition against Wee1-like protein kinase was half-maximal at 20 nM (IC50). In “physchem [1]”, this compound had a pKa of 10.5.

As to `CN(C)CCCOc1cc2c(cc1O)c1c3c(c(-c4ccccc4Cl)cc1n2C)C(=O)NC3=O`, the IC50 in series [3] turned out to be 10 nM; in the series with HT-29 [4], 230 nM. In “physchem [1]”, this compound displayed a pKa of 9.5.

A word on the solubility: it is the concentration that dissolves in the medium under given conditions. Read a low solubility as a poorly soluble substance. With `O=C1NC(=O)c2c1c(-c1ccccc1Cl)cc1c2c2cc(O)ccc2n1CCCO`, the IC50 in series [3] amounted to 250 nM. Further, in “physchem [6]”, the solubility is under 3 µg/mL.

`Cn1c2cc(CCCCN3CCOCC3)c(O)cc2c2c3c(c(-c4ccccc4Cl)cc21)C(=O)NC3=O`: inhibition against Wee1-like protein kinase was half-maximal at 30 nM (IC50). The compound also showed a pKa in the series “physchem [1]” of 7.8.

Compound `CN(C)CCCOc1cc2c(cc1O)c1c3c(c(-c4ccccc4Cl)cc1n2C)C(=O)NC3=O.Cl` displayed a solubility in “physchem [6]” of 2200 µg/mL.

The values are drawn from ChEMBL document CHEMBL1143190, “Synthesis and structure-activity relationships of soluble 8-substituted 4-(2-chlorophenyl)-9-hydroxypyrrolo[3,4-c]carbazole-1,3(2H,6H)-diones as inhibitors of the Wee1 and Chk1 checkpoint kinases” (Bioorg Med Chem Lett, 2008).
